Experimental findings from patent US20190388425A1, “SUBSTITUTED IMIDAZOPYRIDINPYRIMIDINES” (Bayer Pharma Aktiengesellschaft, priority 2017, published 2019) are described below.

This experiment deals with T1, human full-length MKNK1 (Homo sapiens, UniProt Q9BUB5, T385D).
T1 construct: GST (N); purchased Carna Biosciences 02-145; host or cells: insect cells (baculovirus expression system)
T1 sequence (Q9BUB5 1-424 isoform Q9BUB5-2 T344D): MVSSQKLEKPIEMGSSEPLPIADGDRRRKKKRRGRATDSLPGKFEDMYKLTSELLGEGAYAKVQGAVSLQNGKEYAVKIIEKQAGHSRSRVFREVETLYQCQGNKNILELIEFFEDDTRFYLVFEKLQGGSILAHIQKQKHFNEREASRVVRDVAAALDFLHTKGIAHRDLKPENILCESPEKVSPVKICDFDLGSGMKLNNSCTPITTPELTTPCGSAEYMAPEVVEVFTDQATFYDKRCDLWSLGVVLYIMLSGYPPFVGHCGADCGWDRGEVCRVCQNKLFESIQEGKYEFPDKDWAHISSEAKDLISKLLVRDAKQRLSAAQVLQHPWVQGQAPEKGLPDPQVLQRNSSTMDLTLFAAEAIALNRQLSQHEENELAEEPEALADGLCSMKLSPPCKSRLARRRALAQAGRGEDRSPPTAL
Briefly: MKNK1 kinase high ATP assay (TR-FRET). Format: biochemical. Particulars: TR-FRET, 2 mM ATP (high ATP), 15 min preincubation with enzyme, 30 min reaction at 22° C.; read-out: MKNK1 IC50. An outline of the steps:
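Full-length human MKNK1 (T385D) preincubated 15 min at 22 °C with compound in HEPES pH 7.5/MgCl2/DTT buffer; reaction with 2 mM ATP (final) and 0.06 μM biotinylated peptide (final), 30 min at 22 °C.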
Consider `C[C@@H]1CN(C(=O)[C@H]2CCc3c(sc4ncnc(Nc5cc(Cl)c6n(c5=O)C(C)(C)NC6=O)c34)C2)CCN1C` [Example 115, 8-Chloro-6-({(7S)-7-[(3R)-3,4-dimethylpiperazine-1-carbonyl]-5,6,7,8-tetrahydro[1]benzothieno[2,3-d]pyrimidin-4-yl}amino)-3,3-dimethyl-2,3-dihydroimidazo[1,5-a]pyridine-1,5-dione], for which the IC50 turned out to be 0.2 nM. With `Cc1cc(Nc2ncnc3sc4c(c23)CC[C@H](C(=O)N2CC(C)(O)C2)C4)c(=O)n2c1C(=O)NC21CCCCC1` [Example 6, 6′-({(7S)-7-[(3-Hydroxy-3-methylazetidin-1-yl)carbonyl]-5,6,7,8-tetrahydro[1]benzothieno[2,3-d]pyrimidin-4-yl}amino)-8′-methyl-2′H-spiro[cyclohexane-1,3′-imidazo[1,5-a]pyridine]-1′,5′-dione] the figure was 1.5 nM; with `Cc1cc(Nc2ncnc3sc4c(c23)CC[C@H](C(=O)N(C)C)C4)c(=O)n2c1C(=O)NC21CSC1` [Example 45, (7S)—N,N-Dimethyl-4-[(8-methyl-1,5-dioxo-1,5-dihydro-2H-spiro[imidazo[1,5-a]pyridine-3,3′-thietan]-6-yl)amino]-5,6,7,8-tetrahydro[1]benzothieno[2,3-d]pyrimidine-7-carboxamide], 0.6 nM; with `Cc1cc(Nc2ncnc3sc4c(c23)CC[C@H](C(=O)N2C[C@H]3C[C@@H]2CO3)C4)c(=O)n2c1C(=O)NC21CCCCC1` [Example 8, 8′-Methyl-6′-({(7S)-7-[(1R,4R)-2-oxa-5-azabicyclo[2.2.1]hept-5-ylcarbonyl]-5,6,7,8-tetrahydro[1]benzothieno[2,3-d]pyrimidin-4-yl}amino)-2′H-spiro[cyclohexane-1,3′-imidazo[1,5-a]pyridine]-1′,5′-dione], 0.6 nM. On to `CNC(=O)[C@H]1CCc2c(sc3ncnc(Nc4cc(C)c5n(c4=O)C4(CCCCC4)NC5=O)c23)C1` [Example 4, (7S)—N-Methyl-4-[(8′-methyl-1′,5′-dioxo-1′,5′-dihydro-2′H-spiro[cyclohexane-1,3′-imidazo[1,5-a]pyridin]-6′-yl)amino]-5,6,7,8-tetrahydro[1]benzothieno[2,3-d]pyrimidine-7-carboxamide], for which the concentration for half-maximal inhibition (IC50) came out at 0.4 nM. Turning to `Cc1cc(Nc2ncnc3sc4c(c23)CC[C@H](C(=O)N2CCN(C)[C@H](C)C2)C4)c(=O)n2c1C(=O)NC21CSC1` [Example 50, 6-{[(7S)-7-{[(3R)-3,4-dimethylpiperazin-1-yl]carbonyl}-5,6,7,8-tetrahydro[1]benzothieno[2,3-d]pyrimidin-4-yl]amino}-8-methyl-2H-spiro[imidazo[1,5-a]pyridine-3,3′-thietane]-1,5-dione], the half-maximal inhibitory concentration (IC50) came out at 0.3 nM. Regarding `Cc1cc(Nc2ncnc3sc4c(c23)CC[C@H](C(=O)N2CCC2)C4)c(=O)n2c1C(=O)NC2(C)C` [Example 28, 6-{[(7S)-7-(Azetidin-1-ylcarbonyl)-5,6,7,8-tetrahydro[1]benzothieno[2,3-d]pyrimidin-4-yl]amino}-3,3,8-trimethyl-2,3-dihydroimidazo[1,5-a]pyridine-1,5-dione], the IC50 worked out at 1 nM. `Cc1cc(Nc2ncnc3sc4c(c23)CC[C@H](C(=O)O)C4)c(=O)n2c1C(=O)NC21CSC1` [Example 44, (7S)-4-[(8-Methyl-1,5-dioxo-1,5-dihydro-2H-spiro[imidazo[1,5-a]pyridine-3,3′-thietan]-6-yl)amino]-5,6,7,8-tetrahydro[1]benzothieno[2,3-d]pyrimidine-7-carboxylic acid]: the half-inhibitory concentration (IC50) came to 17.4 nM. In the case of `O=C1NC2(CSC2)n2c1c(Cl)cc(Nc1ncnc3sc4c(c13)CC[C@H](C(=O)N1CCC1)C4)c2=O` [Example 103, 6-{[(7S)-7-(Azetidine-1-carbonyl)-5,6,7,8-tetrahydro[1]benzothieno[2,3-d]pyrimidin-4-yl]amino}-8-chloro-2H-spiro[imidazo[1,5-a]pyridine-3,3′-thietane]-1,5-dione], the IC50 is 0.2 nM. Consider `CN(C)[C@H]1CCN(C(=O)[C@H]2CCc3c(sc4ncnc(Nc5cc(Cl)c6n(c5=O)C5(CCCCC5)NC6=O)c34)C2)C1` [Example 78, 8′-Chloro-6′-{[(7S)-7-{[(3S)-3-(dimethylamino)pyrrolidin-1-yl]carbonyl}-5,6,7,8-tetrahydro[1]benzothieno[2,3-d]pyrimidin-4-yl]amino}-2′H-spiro[cyclohexane-1,3′-imidazo[1,5-a]pyridine]-1′,5′-dione], for which the IC50 was determined as 4.8 nM. On to `C[C@@H]1COCCN1C(=O)[C@H]1CCc2c(sc3ncnc(Nc4cc(Cl)c5n(c4=O)C4(CSC4)NC5=O)c23)C1` [Example 106, 8-Chloro-6-({(7S)-7-[(3R)-3-methylmorpholine-4-carbonyl]-5,6,7,8-tetrahydro[1]benzothieno[2,3-d]pyrimidin-4-yl}amino)-2H-spiro[imidazo[1,5-a]pyridine-3,3′-thietane]-1,5-dione], for which the IC50 was 0.3 nM. For `Cc1cc(Nc2ncnc3sc4c(c23)CC[C@H](C(=O)N(C)C)C4)c(=O)n2c1C(=O)NC2(C)C` [Example 27, (7S)—N,N-Dimethyl-4-[(3,3,8-trimethyl-1,5-dioxo-1,2,3,5-tetrahydroimidazo[1,5-a]pyridin-6-yl)amino]-5,6,7,8-tetrahydro[1]benzothieno[2,3-d]pyrimidine-7-carboxamide], the 50% inhibitory concentration (IC50) came out at 2 nM. For the compound `Cc1cc(Nc2ncnc3sc4c(c23)CC[C@H](C(=O)N2CCN(C)[C@H](C)C2)C4)c(=O)n2c1C(=O)NC21CCCC1` [Example 35, 6′-{[(7S)-7-{[(3R)-3,4-Dimethylpiperazin-1-yl]carbonyl}-5,6,7,8-tetrahydro[1]benzothieno[2,3-d]pyrimidin-4-yl]amino}-8′-methyl-2′H-spiro[cyclopentane-1,3′-imidazo[1,5-a]pyridine]-1′,5′-dione], the 50% inhibitory concentration (IC50) was determined as 0.4 nM. With `Cc1cc(Nc2ncnc3sc4c(c23)CC[C@H](C(=O)N(C)C)C4)c(=O)n2c1C(=O)NC21CS(=O)(=O)C1` [Example 66, (7S)—N,N-Dimethyl-4-[(8-methyl-1′,1′-dioxido-1,5-dioxo-1,5-dihydro-2H-spiro[imidazo[1,5-a]pyridine-3,3′-thietan]-6-yl)amino]-5,6,7,8-tetrahydro[1]benzothieno[2,3-d]pyrimidine-7-carboxamide] the figure was 3.1 nM; with `Cc1cc(Nc2ncnc3sc4c(c23)CC[C@H](C(=O)N2CC(C#N)C2)C4)c(=O)n2c1C(=O)NC2(C)C` [Example 29, 1-({(7S)-4-[(3,3,8-Trimethyl-1,5-dioxo-1,2,3,5-tetrahydroimidazo[1,5-a]pyridin-6-yl)amino]-5,6,7,8-tetrahydro[1]benzothieno[2,3-d]pyrimidin-7-yl}carbonyl)azetidine-3-carbonitrile], 1 nM; with `Cc1cc(Nc2ncnc3sc4c(c23)CC[C@H](C(=O)N2CC(C#N)C2)C4)c(=O)n2c1C(=O)NC21CCC(F)(F)CC1` [Example 54, 1-({(7S)-4-[(4,4-Difluoro-8′-methyl-1′,5′-dioxo-1′,5′-dihydro-2′H-spiro[cyclohexane-1,3′-imidazo[1,5-a]pyridin]-6′-yl)amino]-5,6,7,8-tetrahydro[1]benzothieno[2,3-d]pyrimidin-7-yl}carbonyl)azetidine-3-carbonitrile], 4.4 nM.
